Non-standard residues stand in square brackets, D forms with d. Residues, ends and D or L forms follow the SMILES beside them. *: point of attachment. X1 = C[C@H](CC(=O)N[C@@H](CCCCN)C(=O)O)OC(=O)C[C@H](C)NC(=O)C[C@@H](C)O*; β3hA = C[C@H](N)CC(=O)O

The test system of the experiment is RMA-S. The experiment is described as follows: The compound was tested for binding affinity against murine RMA-S cells transfected with B*2705 by FMC analysis. It counts as functional, Mus musculus.
The compound `C[C@H](CC(=O)N[C@@H](CCCCN)C(=O)O)OC(=O)C[C@H](C)NC(=O)C[C@@H](C)OC(=O)C[C@H](C)NC(=O)[C@H](C)NC(=O)[C@H](CCCN=C(N)N)NC(=O)CN` (H-GRA[β3hA]-X1) came in with a C50 of 2.8 µM.
Compound `C[C@H](NC(=O)[C@H](CCCN=C(N)N)NC(=O)CN)C(=O)N[C@@H](C)CC(=O)N[C@@H](C)CC(=O)N[C@@H](C)CC(=O)N[C@@H](C)CC(=O)N[C@@H](CCCCN)C(=O)O` showed a C50 of 6 µM.
With `C[C@H](CC(=O)N[C@@H](C)CC(=O)N[C@@H](C)CC(=O)N[C@@H](CCCCN)C(=O)O)NC(=O)C[C@@H](C)NC(=O)[C@H](C)NC(=O)[C@H](CCCN=C(N)N)NC(=O)CN` the figure was 30 µM; with `C[C@H](CC(=O)N[C@@H](CCCCN)C(=O)O)NC(=O)C[C@H](C)NC(=O)C[C@@H](C)NC(=O)C[C@H](C)NC(=O)[C@H](C)NC(=O)[C@H](CCCN=C(N)N)NC(=O)CN.O=C(O)C(F)(F)F.O=C(O)C(F)(F)F.O=C(O)C(F)(F)F`, 4.8 µM; with `C[C@H](CC(=O)N[C@H](C)CC(=O)N[C@@H](CCCCN)C(=O)O)NC(=O)C[C@@H](C)NC(=O)C[C@@H](C)NC(=O)[C@H](C)NC(=O)[C@H](CCCN=C(N)N)NC(=O)CN.O=C(O)C(F)(F)F.O=C(O)C(F)(F)F.O=C(O)C(F)(F)F`, 2.8 µM.
Take `C[C@H](CC(=O)N[C@@H](C)CC(=O)N[C@@H](C)CC(=O)N[C@@H](CCCCN)C(=O)O)OC(=O)C[C@@H](C)OC(=O)[C@H](C)NC(=O)[C@H](CCCN=C(N)N)NC(=O)CN`: the C50 was 17 µM.
With H-GRAFVTIGK-OH the figure was 2.8 µM.

These data come from ChEMBL document CHEMBL1132252, “Nonapeptide analogues containing (R)-3-hydroxybutanoate and beta-homoalanine oligomers: synthesis and binding affinity to a class I major histocompatibility complex protein” (1999).
